Measured values: patent publication US8580825B2, “Oxadiazole inhibitors of leukotriene production” (Boehringer Ingelheim International GmbH, priority 2010, dated 2013)

Assays:
[1] = test system: biomarkers for myocardial infarction risk; details: clinical trial; cited from earlier work
[2] = biological target: T1, recombinant human FLAP protein (Homo sapiens, UniProt P20292); assay: FLAP binding assay (Scintillation Proximity Assay, displacement of [125I]L-691,831); details: read-out: FLAP SPA IC50
T1 construct: made in house; host or cells: Sf9 insect cells (100,000xg membrane fraction used)
T1 sequence (P20292 1-161): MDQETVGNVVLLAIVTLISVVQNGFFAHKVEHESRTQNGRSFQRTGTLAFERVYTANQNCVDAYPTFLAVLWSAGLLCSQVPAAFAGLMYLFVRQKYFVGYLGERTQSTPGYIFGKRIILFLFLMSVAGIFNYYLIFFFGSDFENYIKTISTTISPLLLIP
In short: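 Scintillation proximity displacement of [125I]L-691,831 (0.08 nM) from membranes of sf9 cells expressing recombinant human FLAP (5 μg/well) on WGA SPA beads, pH 7.5 Tris buffer. Plates shaken 2 h before counting. Non-specific binding defined with 10 μM unlabelled L-691,831.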

[3] = test system: synthesis of LTB4 in human whole blood; assay: human whole blood LTB4 production inhibition assay; assay type: cell-based; details: calcimycin stimulated, read-out: hWB LTB4 IC50
In short: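 Whole-blood cellular format, heparinized human donors: 15 min compound pretreatment, then 30 min calcimycin stimulation (20 μM final), both at 37° C. Low-speed centrifugation yields plasma, in which LTB4 is read by homogeneous time-resolved fluorescence immunoassay.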

[4] = test system: human glomerulonephritis; details: clinical trial; cited from earlier work
[5] = test system: ApoE−/−xCD4dnTβRII mice; details: infusion, treated for four weeks; cited from earlier work
[6] = test system: apoE/LDL-R double knockout mice; details: oral dosing, high-fat diet from 2 months of age to 6 months; cited from earlier work

| IC50 [2] | IC50 [3] | Structure (SMILES) | other results |
| --- | --- | --- | --- |
| 40 nM | 97 nM | CC(C)(O)Cn1cc(-c2nc([C@@](C)(c3ccc(-c4cnc(N)c(C#N)n4)nc3)C3CC3)no2)cn1 [Example 164, 3-Amino-6-[5-((R)-1-cyclopropyl-1-{5-[1-(2-hydroxy-2-methyl-propyl)-1H-pyrazol-4-yl]-[1,2,4]oxadiazol-3-yl}-ethyl)-pyridin-2-yl]-pyrazine-2-carbonitrile] |  |
| 56 nM | 82 nM | CNc1ncc(-c2ccc([C@](C)(c3noc(-c4cnn(CC(C)(C)O)c4)n3)C3CC3)cn2)cn1 [Example 165, 1-[4-(3-{(R)-1-Cyclopropyl-1-[6-(2-methylamino-pyrimidin-5-yl)-pyridin-3-yl]-ethyl}-[1,2,4]oxadiazol-5-yl)-pyrazol-1-yl]-2-methyl-propan-2-ol] |  |
| 41 nM | 57 nM | Cc1nc(N)cnc1-c1ccc([C@](C)(c2noc(-c3cnn(CC(C)(C)O)c3)n2)C2CC2)cn1 [Example 166, 1-[4-(3-{(R)-1-[6-(5-Amino-3-methyl-pyrazin-2-yl)-pyridin-3-yl]-1-cyclopropyl-ethyl}-[1,2,4]oxadiazol-5-yl)-pyrazol-1-yl]-2-methyl-propan-2-ol] |  |
| 65 nM | 256 nM | CC(C)(O)Cn1cc(-c2nc([C@@](C)(c3ccc(-c4cnc(N)c(F)c4)nc3)C3CC3)no2)cn1 [Example 177, 1-(4-{3-[(R)-1-(6′-Amino-5′-fluoro-[2,3′]bipyridinyl-5-yl)-1-cyclopropyl-ethyl]-[1,2,4]oxadiazol-5-yl}-pyrazol-1-yl)-2-methyl-propan-2-ol] |  |
| 2000 nM | 2350 nM | CC(C)(O)Cn1cc(-c2nc([C@](C)(c3ccc(-c4cnc(N)c(F)c4)nc3)C3CC3)no2)cn1 [Example 178, 1-(4-{3-[(S)-1-(6′-Amino-5′-fluoro-[2,3′]bipyridinyl-5-yl)-1-cyclopropyl-ethyl]-[1,2,4]oxadiazol-5-yl}-pyrazol-1-yl)-2-methyl-propan-2-ol] |  |
| 450 nM | 483 nM | Cc1nc(N)ncc1-c1ccc(C(C)(c2noc(-c3cnn(CC(C)(C)O)c3)n2)C2CC2)cn1 (stereo not drawn) [Example 179, 1-[4-(3-{1-[6-(2-Amino-4-methyl-pyrimidin-5-yl)-pyridin-3-yl]-1-cyclopropyl-ethyl}-[1,2,4]oxadiazol-5-yl)-pyrazol-1-yl]-2-methyl-propan-2-ol] |  |
| 190 nM | 309 nM | Cc1nc(N)ncc1-c1ccc(C(C)(c2noc(-c3cnn(C)c3)n2)C2CC2)cn1 (stereo not drawn) [Example 180, 5-(5-{1-Cyclopropyl-1-[5-(1-methyl-1H-pyrazol-4-yl)-[1,2,4]oxadiazol-3-yl]-ethyl}-pyridin-2-yl)-4-methyl-pyrimidin-2-ylamine] |  |
| 34 nM | 65 nM | Cn1cc(-c2nc(C(C)(c3ccc(-c4cnc(N)cn4)nc3)C3CC3)no2)cn1 (stereo not drawn) [Example 181, 5-(5-{1-Cyclopropyl-1-[5-(1-methyl-1H-pyrazol-4-yl)-[1,2,4]oxadiazol-3-yl]-ethyl}-pyridin-2-yl)-pyrazin-2-ylamine] |  |

Further lines, the compound ahead of its results:

| Structure (SMILES) | IC50 [2] | IC50 [3] | other results |
| --- | --- | --- | --- |
| O=C(O)[C@@H](c1ccc(OCc2ccc3ccccc3n2)cc1)C1CCCC1 [DG-031] |  |  | effect on biomarkers for myocardial infarction risk [1]: dose-dependent suppression of several biomarkers |
| C[C@@](c1ccc(-c2cnc(N)cn2)nc1)(c1noc(-c2cnn(C3COC3)c2)n1)C1CC1 [Example 160, 5-(5-{(R)-1-Cyclopropyl-1[5-(1-oxetan-3-yl-1H-pyrazol-4-yl)-[1,2,4]oxadiazol-3-yl]-ethyl}-pyridin-2-yl)-pyrazin-2-ylamine] | 15 nM | 23 nM |  |
| C[C@@](c1ccc(-c2cnc(N)cn2)nc1)(c1noc(-c2cnn(CC#N)c2)n1)C1CC1 [Example 161, [4-(3-{(R)-1-[6-(5-Amino-pyrazin-2-yl)-pyridin-3-yl]-1-cyclopropyl-ethyl}-[1,2,4]oxadiazol-5-yl)-pyrazol-1-yl]-acetonitrile] | 21 nM | 32 nM |  |
| CC(C)(O)Cn1cc(-c2nc([C@@](C)(c3ccc(-c4cnc(N)nc4C#N)nc3)C3CC3)no2)cn1 [Example 163, 2-Amino-5-[5-((R)-1-cyclopropyl-1-{5-[1-(2-hydroxy-2-methyl-propyl)-1H-pyrazol-4-yl]-[1,2,4]oxadiazol-3-yl}-ethyl)-pyridin-2-yl]-pyrimidine-4-carbonitrile] | 290 nM | 348 nM |  |
| CC(C)(C)Sc1c(CC(C)(C)C(=O)O)n(Cc2ccc(Cl)cc2)c2ccc(OCc3ccc4ccccc4n3)cc12 [MK-591] |  |  | effect on proteinuria [4]: reduce proteinuria |
| CC(C)c1ccc2c(c1)c(SC(C)(C)C)c(CC(C)(C)C(=O)O)n2Cc1ccc(Cl)cc1 [MK-886] |  |  | decrease in plaque area in the aortic root [5]: ~40%; decrease in plaque coverage in the aorta [6]: 56%; decrease in plaque coverage in the aortic root [6]: 43% |
